In PubChem BioAssay (NCI) one finds GI50 and TGI data, which are given here for 14 compounds.

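A five-concentration, 48-hour dose response in 96-well plates underlies each endpoint, interpolated linearly between surrounding concentrations. Abbreviation: GI50, concentration required for 50% inhibition of growth. The concentration for full growth arrest is given as TGI.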 A value given as a limit tells only on which side of the number the result lay.

Test systems include A549 NSCLC; ACHN renal; CAKI-1 renal; CCRF-CEM leukemia; HCC-2998 colon; M14 melanoma; PC-3 prostate; SW-620 colon; UACC-257 melanoma; RXF 393 renal.
What all share (experiment): NCI-60 cell line screen, 48 h

Turning to `O=S(=O)(NCCNc1nccc(-c2c(-c3ccc(F)cc3)nc3sccn23)n1)c1ccccc1`, the GI50 in the assay with A549 NSCLC is 1.93 µM; in the assay with ACHN renal, 1.69 µM; with CAKI-1 renal, 3.24 µM; with CCRF-CEM leukemia, 3.5 µM; in the assay on HCC-2998 colon, 22.4 µM; in the assay with M14 melanoma it was 4.94 µM. Moreover, the GI50 in the assay with PC-3 prostate was 4 µM; in the assay with SW-620 colon, 6.55 µM; in the assay on UACC-257 melanoma, 10.6 µM. Moreover, the TGI in the assay with A549 NSCLC, with ACHN renal, in the assay with CAKI-1 renal, with CCRF-CEM leukemia, in the assay on HCC-2998 colon and in the assay with M14 melanoma was greater than 100 µM each time. Also, the TGI is 78.8 µM in the assay on PC-3 prostate, greater than 100 µM with SW-620 colon and 72.8 µM in the assay on UACC-257 melanoma.
For `C=C1[C@@H]([C@@]2(C)C=CC(=O)C(C)(C)[C@@H]2CC(=O)OC)CC[C@@]2(C)C(c3ccoc3)OC(=O)[C@H]3O[C@]132` (some centres undefined), the TGI in the assay with A549 NSCLC, with ACHN renal, with CAKI-1 renal, in the assay on CCRF-CEM leukemia, in the assay with HCC-2998 colon and in the assay on M14 melanoma was greater than 100 µM each time. Besides, the TGI in the assay with PC-3 prostate, in the assay with SW-620 colon and in the assay with UACC-257 melanoma was greater than 100 µM each time.
Regarding `O=C(Nc1ccc(Cl)c(Cl)c1)OCCN1c2ccccc2Sc2ccccc21`, the TGI in the assay on A549 NSCLC, with ACHN renal, with CAKI-1 renal, with CCRF-CEM leukemia, with HCC-2998 colon and in the assay on M14 melanoma was greater than 10 µM in each case. For the same compound, the TGI in the assay with PC-3 prostate, in the assay with SW-620 colon and in the assay on UACC-257 melanoma was greater than 10 µM throughout.
For the compound `O=C(O)C1=C(C(=O)Nc2ccc(NC(=O)C3=C(C(=O)O)C4C=CC3C4)cc2)C2C=CC1C2`, the TGI in the assay on A549 NSCLC, in the assay with ACHN renal, with CAKI-1 renal, with CCRF-CEM leukemia, with HCC-2998 colon and in the assay on M14 melanoma was greater than 100 µM in each case. The TGI with RXF 393 renal, in the assay with SW-620 colon and in the assay on UACC-257 melanoma was greater than 100 µM each time.
Consider `COC(=O)C1=CC2OC1(C)CCC2=O` (centres undefined), for which the TGI with A549 NSCLC, in the assay on ACHN renal, in the assay with CAKI-1 renal, with CCRF-CEM leukemia, in the assay with HCC-2998 colon and in the assay on M14 melanoma was greater than 100 µM throughout. Besides, the TGI in the assay on RXF 393 renal, in the assay on SW-620 colon and in the assay with UACC-257 melanoma was greater than 100 µM in each case.
`O=C1OC(OCC#CCOC2OC(=O)C(Cl)=C2Cl)C(Cl)=C1Cl` (centres undefined): the TGI is 38.9 µM in the assay on A549 NSCLC; 30.5 µM in the assay with ACHN renal; 4.63 µM in the assay with CCRF-CEM leukemia; 14.3 µM in the assay on HCC-2998 colon; 23.9 µM in the assay on M14 melanoma; 27.1 µM in the assay with PC-3 prostate. Moreover, the TGI in the assay with SW-620 colon is 18.4 µM; with UACC-257 melanoma, 32.3 µM.
In the case of `O=[N+]([O-])c1ccc(Cl)cc1C1SCc2nc3ccccc3n21` (centres undefined), the TGI with A549 NSCLC was greater than 100 µM; in the assay on ACHN renal, 27.4 µM; with CAKI-1 renal, greater than 100 µM; in the assay on CCRF-CEM leukemia, greater than 100 µM; with HCC-2998 colon it was greater than 100 µM; in the assay on M14 melanoma, greater than 100 µM. Also, the TGI in the assay on RXF 393 renal was 73.3 µM; in the assay on SW-620 colon, greater than 100 µM; in the assay with UACC-257 melanoma it was greater than 100 µM.
Turning to `Cc1ccccc1-n1c(C)nc(-c2ccccc2)cc1=O`, the TGI in the assay on A549 NSCLC, in the assay with ACHN renal, with CAKI-1 renal, with CCRF-CEM leukemia, in the assay on HCC-2998 colon and in the assay with M14 melanoma was greater than 100 µM in each case. Further, the TGI in the assay on RXF 393 renal, in the assay on SW-620 colon and in the assay on UACC-257 melanoma was greater than 100 µM in each case.
In the case of `COC1OC2COC(c3ccccc3)OC2C(O)C1Br` (centres undefined), the TGI in the assay on A549 NSCLC, in the assay with ACHN renal, with CAKI-1 renal, in the assay with CCRF-CEM leukemia, with HCC-2998 colon and in the assay with M14 melanoma was greater than 100 µM in each case. In addition, the TGI in the assay on RXF 393 renal, in the assay with SW-620 colon and in the assay with UACC-257 melanoma was greater than 100 µM in each case.
`COc1ccc2c(c1OC)C(=O)c1cnccc1C2=O`: the TGI with A549 NSCLC, with ACHN renal, with CAKI-1 renal, in the assay on CCRF-CEM leukemia, in the assay with HCC-2998 colon and with M14 melanoma was greater than 100 µM throughout. Also, the TGI with RXF 393 renal, with SW-620 colon and in the assay with UACC-257 melanoma was greater than 100 µM in each case.
As to `O=C(NS(=O)(=O)c1ccccc1)C(Cc1ccccc1)C(Cc1ccccc1)C(=O)NS(=O)(=O)c1ccccc1` (centres undefined), the TGI with A549 NSCLC, with ACHN renal, in the assay with CAKI-1 renal, in the assay with CCRF-CEM leukemia, in the assay with HCC-2998 colon and in the assay on M14 melanoma was greater than 100 µM throughout. Moreover, the TGI with RXF 393 renal, in the assay with SW-620 colon and with UACC-257 melanoma was greater than 100 µM each time.
Turning to `COC(=O)CCC(=O)NC1C2CC3CC(C2)CC1C3` (centres undefined), the TGI in the assay with A549 NSCLC, in the assay on ACHN renal, in the assay on CAKI-1 renal, with CCRF-CEM leukemia, with HCC-2998 colon and in the assay on M14 melanoma was greater than 100 µM throughout. For the same compound, the TGI in the assay with RXF 393 renal, in the assay with SW-620 colon and in the assay with UACC-257 melanoma was greater than 100 µM each time.
As to `N#CC1=C(Cl)NC(Cl)=C(C#N)C1c1c(Cl)cccc1Cl`, the TGI in the assay on A549 NSCLC is 83.6 µM; in the assay on ACHN renal it was greater than 100 µM; in the assay on CAKI-1 renal, greater than 100 µM; in the assay with CCRF-CEM leukemia it was 54.5 µM; in the assay with HCC-2998 colon it was 47 µM; in the assay on M14 melanoma, greater than 100 µM. Moreover, the figures for the TGI with RXF 393 renal, with SW-620 colon and with UACC-257 melanoma were 59 µM, 27 µM and 50.3 µM, respectively.
For the compound `O=S(=O)(C/C(=N\O)c1ccccc1)c1ccccc1`, the TGI with A549 NSCLC, in the assay with ACHN renal, in the assay with CAKI-1 renal, with CCRF-CEM leukemia, in the assay with HCC-2998 colon and in the assay with M14 melanoma was greater than 100 µM each time. The TGI with RXF 393 renal, in the assay on SW-620 colon and with UACC-257 melanoma was greater than 100 µM each time.
